The values below come from EP0062319A1, “3-Methyl-1-(2-(3-naphthyloxy)-ethyl)-2-pyrazolin-5-one for the treatment of the metastasis and growth of tumour cells” (BAYER AG, priority 1981, dated 1982).

Assay [1] concerns B-16a-Melanom-Zellen. The settings on record: literature; metastasis induced by intravenous B-16a melanoma cells; cited from earlier work.
The test system of assay [2] is Lewis-Lungen-Karzinom. Put plainly: Tumour incidence and final tumour weight of subcutaneous Lewis lung carcinoma in mice. The settings on record: killed day 22. The class given is in vivo, C57BL/6J Mäuse. The text has this:
Die antineoplastische Wirksamkeit wurde außerdem durch direkte Messung des Wachstums der Tumorzellen in vitro in Gewebekulturen bestimmt. Diese Methode bedient sich des "Plating" oder Aufimpfens einer bekannten Anzahl von Tumorzellen auf ein Wachstumsmedium und der Bestimmung der Wirkung der Anwesenheit der zu prüfenden Verbindung auf die Tumorzellen-Proliferation. Schließlich wurde die antineoplastische Aktivität in vivo in der Weise bestimmt, daß den Mäusen subkutan Tumorzellen injiziert wurden und das Auftreten von Tumorzellenwachstum sowie das Gewicht der wachsenden Tumorzellen in unbehandelten Kontrolltieren und in mit der Pyrazolon-Verbindung behandelten Tieren bestimmt wurden.
3 mg 3-Methyl-1-[2-(2-naphthyloxy)-ethyl]-2-pyrazolin-5-on wurden in 0,6 ml Ethylalkohol gelöst, und die Lösung wurde mit konzentrierter Natronlauge auf einen pH von 9,5 eingestellt.
Syngeneischen C57BL/6J Wirts-Mäusen wurden 1 x 10^5 Lewis-Lungenkarzinom-Zellen (0,2 ml) subkutan in die Achselhöhlenregion injiziert. Nach einem Zeitraum von 24 Stunden wurde die Pyrazolon-Verbindung 21 Tage lang täglich verabreicht. Die Wirkung der Verabreichung von Theophyllin zusammen mit der Pyrazolon-Verbindung wurde ebenfalls untersucht. Während des Zeitraums wurden die Mäuse unter identischen Bedingungen der Temperatur, Lichteinwirkungsdauer, Ernährung etc. gehalten. Die Mäuse wurden 22 Tage nach der Injektion der Tumorzellen getötet und mittels einer Gesamt-Nekropsie auf die Anwesenheit subkutaner Tumoren untersucht. Vorhandene Tumoren wurden entfernt und auf einer Analysenwaage gewogen.

Assay [3] concerns B-16a-amelanotischen Melanom-Zellen. As to the kind of experiment: Metastasis of tail-vein injected B-16a melanoma cells (lung tumour colonies) in mice. It is filed as in vivo, C57BL/6J Mäuse. The settings on record: Theophyllin 200 µg injected 1 h before the tumour cells; 5 x 10^4 cells i.v.; mean ± SEM, n = 6. The source says:
Wie bereits weiter oben festgestellt wurde, ist die Metastase […], die durch eine Reihe komplizierter Vorgänge dargestellt wird. Gegenwärtig finden zwei "Modell"-Systeme für die Untersuchung der in vivo-Metastase verbreitete Anwendung. Das erste Modellsystem umfaßt die subkutane Injektion der Tumorzellen in das Tier. Die subkutane Injektion der Tumorzellen und anschließende Entwicklung eines Primärtumors, gefolgt von spontaner Metastase, wird als "volle" Metastase betrachtet. Ein anderes Modellsystem umfaßt die Injektion der Tumorzellen durch die Schwanzvene. In Anbetracht der Komplexität der Metastase gilt die Schwanzvenen-Injektion als künstliches und nur partielles Modellsystem, da es nur die Vorgänge während des letzteren Teils der Metastase wiedergibt. Das Schwanzvenen-Modellsystem gilt jedoch auch als außerordentlich günstig im Hinblick auf eine Standardisierung der Versuchsbedingungen [vgl."Methods in Cancer Research", Kapitel VII, Academic Press, Inc., 1978].
Als Kontrolltiere wurden (unbehandelte) C57B1/6J-Mäuse nach folgender Arbeitsweise auf volle Metastase untersucht. Zellsuspensionen der B-16 - und 3LL-Karzinom-Zellen, die wie oben unter A und B beschrieben erhalten worden waren, wurden subkutan in die rechte Achselhöhlenregion der männlichen C57BL/6J-Mäuse injiziert (0,66 mm- = 26 gauge -Nadel; 0,2 ml). Injiziert wurden verschiedene Mengen der Zellsuspensionen im Bereich von 1 x 10^5 bis 1 x 10^6 Zellen. Versuche zur partiellen Metastase wurden in der Weise durchgeführt, daß Tumorzellen über die Schwanzvene in die (unbehandelten) Kontroll-Mäuse injiziert wurden. Die Tiere wurden unter identischen Bedingungen der Temperatur, Lichteinwirkungsdauer, Ernährung etc. gehalten. Nach einem Beobachtungszeitraum von 17 bis 30 Tagen wurden die für die volle Metastase und für die partielle Metastase verwendeten Tiere getötet, und die Lungen, Leber, Nieren, Milz und Gehirn-Gewebe wurde entnommen.
Das entnommene Gewebe wurde in Bouin-Lösung fixiert.
Die Zahl der metastatischen Knötchen in jedem Organ wurde mit Hilfe eines Bausch-und-Lomb Stereo-Zoom-Mikroskops bestimmt. Die Untersuchung der Kontroll- Mäuse auf metastatische Knötchen ergab bei 100 % der Tiere positive Befunde in bezug auf metastatische Lungentumoren; die Inkubationszeit für die Erzeugung solcher Metastasen betrug für die 3LL-Tumorzellen 17 bis 21 Tage und für die B-16 a -Tumorzellen 23 bis 30 Tage. In Leber, Nieren, Milz oder Gehirn-Gewebe wurden keine sichtbaren Knötchen beobachtet.
3 mg 3-Methyl-1-[2-(2-naphthyloxy)-ethyl]-2-pyrazolin-5-on wurden in 0,6 ml absolutem Ethylalkohol suspendiert. Das suspendierte Pyrazolon wurde durch Einstellen des pH auf 9,5 mit NaOH gelöst. […]

Assay [4] has as its system Metastase. The settings on record: literature, cited from earlier work.

The structures appear in SMILES notation.

`CCCCC[C@H](O)/C=C/[C@@H]1[C@H]2C/C(=C/CCCC(=O)O)O[C@H]2C[C@H]1O` [Prostacyclin]: the Metastase result in assay [1] is “verhindert werden kann”.

Turning to `Cn1c(=O)c2[nH]cnc2n(C)c1=O` [Theophyllin, reference compound], the “Tumor-Häufigkeit Anzahl” value in assay [2] (250 µg Theophyllin daily i.p. in 0,4 ml) is reported as 9/12. In addition, in assay [2] (250 µg Theophyllin daily i.p.), the Tumor-Häufigkeit % came to 75%. Moreover, in assay [2] (final tumour weight, 250 µg Theophyllin daily i.p.), the “Gewicht” value was 1.58 ± 0.42 mg. Besides, the Lungen-Tumor-Kolonien in assay [3] worked out at 165 ± 38.

For the compound `CC(=O)Oc1ccccc1C(=O)O` [Aspirin], the Metastase entry in assay [4] is “gemischte Ergebnisse”.

As to `CC(=O)CC(c1ccccc1)c1c(O)c2ccccc2oc1=O` (stereo not shown) [Warfarin], in assay [4] (after intravenous injection of tumour cells and in spontaneously metastasising tumours), the “antimetastatische Wirkungen” value is “signifikante antimetastatische Wirkungen”.
